# Tests used:
# APPsw+/− mice [1] = test: Memory testing: novel object location and novel object recognition, chronic treatment of APPsw+/− mice; format: in vivo; conditions: 1 mg/kg per day i.p. for two months from 8 months of age
# Protocol: (A) Percent increase in cerebral blood flow (CBF) in response to brain activation in mice treated with vehicle (open bar) or FPS2 (closed bar). (B-C) novel object location (B) and novel object recognition (C) expressed as percent exploratory preference in APPsw^+/− mice treated with vehicle (open bar) or FPS2 (closed bar). FPS2 (1 mg/kg per day) was intraperitoneally administered for two months beginning at the age of 8 months old mice. Values are means±s.e.m, n=5-6 per group.
# APPsw^+/− mice were treated with FPS2 (1 mg/kg) or with vehicle daily by intraperitoneal injection for two months starting at 8 months old. At the end of the treatment period functional changes in cerebral blood flow (CBF) to brain activation, and memory tests were determined. Brain and plasma Aβ levels were also determined in FPS2 and vehicle treated mice. […]
# Compounds were synthesized in parallel using semiautomated chemical reactions. […] Purity was assessed by reverse-phase gradient HPLC. […] After two months of treatment, (i) the cerebral blood flow response to brain activation (whisker stimulation) was measured and (ii) behavioral tests including operant learning, novel object location (NOL), and novel object recognition (NOR) were performed. After these functional tests, the mice were sacrificed and their brains analyzed for Aβ40, Aβ42, and amyloid levels. • CBF response to brain activation. […]
# APPsw+/− mice [2] = test: Thioflavin S-positive amyloid load in brain, chronic treatment of APPsw+/− mice; format: in vivo; conditions: 1 mg/kg per day i.p. for two months
# Protocol: Amyloid load hippocampus and cortex of APPsw^+/− mice treated with vehicle (open bars) or FPS2 (closed bars). FPS2 (1 mg/kg per day), was administered intraperitoneally to mice for two months beginning at the age of 8 months. Values are means±s.e.m, n=5-6 per group.
# In the chronic-treated mice, Aβ40 and Aβ42 levels in the hippocampus were reduced by about 85% and 90%, respectively, in the FPS2-treated mice compared to vehicle (FIG. 6A). Similarly, Aβ40 and Aβ42 levels in the cortex were reduced by about 70% and 80%, respectively (FIG. 6B).
# Compounds were synthesized in parallel using semiautomated chemical reactions. […] Purity was assessed by reverse-phase gradient HPLC. […] After two months of treatment, (i) the cerebral blood flow response to brain activation (whisker stimulation) was measured and (ii) behavioral tests including operant learning, novel object location (NOL), and novel object recognition (NOR) were performed. After these functional tests, the mice were sacrificed and their brains analyzed for Aβ40, Aβ42, and amyloid levels. • CBF response to brain activation. The CBF response to vibrissal stimulation in anesthetized APPsw^+/− mice was measured by using laser-doppler flowmetry (Transonic Systems, BLF 21 D). […] The time exploring the novel and familiar objects was scored by hand to provide discrimination. • Human Aβ40 and Aβ42. […]
smiles,measurement,setting,value
"CC(CC(=O)NCCCN(C(=O)c1cc([N+](=O)[O-])cc([N+](=O)[O-])c1)c1ccccc1)CC(C)(C)C (stereo not shown) [FPS2, 3,5-dinitro-N-phenyl-N-[3-[(3,5,5-trimethyl-1-oxohexyl)amino]propyl]-(9Cl)-benzamide]","memory, novel object location",APPsw+/− mice [1],significantly increased
same,"memory, novel object recognition",APPsw+/− mice [1],significantly increased
same,reduction of thioflavin-S positive areas (amyloid load) in the cortex compared to vehicle,APPsw+/− mice [2],about 85%
same,reduction of thioflavin-S positive areas (amyloid load) in the hippocampus compared to vehicle,APPsw+/− mice [2],about 85%

# — patent publication US8778985B2, “Inhibiting amyloid-beta peptide/rage interaction at the blood-brain barrier” (The University of Rochester, priority 2006, dated 2014)
